Read-outs that look alike come from different tables or passages of the source.
Key:
[1] = system: skin sensitization; conditions: vinyl ethers stated as negative; basis not given; cited from earlier work
[2] = system: female mice; assay: Skin sensitization test, local lymph node assay (LLNA, OECD test guideline 429), BrdU intake by ELISA; conditions: test substance 50.0 w/v % in acetone/olive oil 4:1, 25 μL/auricle once a day for 3 days
Experimental: (§1) According to the skin sensitization test of local lymph node assay (LLNA) specified in OECD test guideline 429, the SI value was measured in the following manner.
(§2) Before treated with the test substances, the positive control or the vehicle control, female mice were acclimated for 8 days including 6-day quarantine. No abnormalities were found in all the mice (used animals) during the quarantine/acclimation period. Based on the body weights measured 2 days before the initiation of sensitization, they were categorized into 2 groups (4 mice/group) by the body weight stratified random sampling method so that the body weight of each individual was within ±20% of the average body weight of all the individuals. Each of the used animals was 8 weeks old to 9 weeks old at the time of the initiation of sensitization. […]
(§3) About 24 hours after the administration of BrdU, the used animals were allowed to undergo euthanasia, and their auricular lymph nodes were sampled. […] Also, the average of the weights of the auricular lymph nodes and the standard error thereof were calculated for each group. […]
(§4) After returning the auricular lymph nodes to room temperature, the auricular lymph nodes were mashed with the gradual addition of physiological saline, and suspended therein. […] The thus-dispensed suspensions were measured for intake of BrdU by the ELISA method. […]

[3] = system: female mice; conditions: mouse, in vivo
Experimental: as §1, §2, §3, §4

[4] = system: skin sensitization; conditions: cited from earlier work

## C=COCCOCCOCCOC=C [triethylene glycol divinyl ether]
[1]
  Skin sensitization: negative for skin sensitization

## C=C(C)C(=O)OCCOCCOC(=O)C(=C)C [Compound 2G, Diethylene glycol dimethacrylate]
[2]
  SI value (Stimulation Index): 1.1

## Caprolactone-modified dipentaerythritol hexaacrylate [DPCA60]
[3]
  SI value (Stimulation Index): 1.0

## O=C(c1ccccc1)C1(O)CCCCC1 [Irgacure 184, 1-hydroxycyclohexylphenyl ketone]
[4]
  Skin sensitization evaluated in MSDS: no

## Cc1cc(C)c(C(=O)P(=O)(C(=O)c2c(C)cc(C)cc2C)c2ccccc2)c(C)c1 [Irgacure 819, Bis(2,4,6-trimethylbenzoyl)-phenylphosphone oxide]
[4]; MSDS
  Skin sensitization evaluated in MSDS: yes

## C=COCCCCO [hydroxybutyl vinyl ether]
[1]
  Skin sensitization: negative for skin sensitization

## C=COCC [ethyl vinyl ether]
[1]
  Skin sensitization: negative for skin sensitization

From patent US9187658B2, “Photopolymerizable inkjet ink, ink cartridge, and inkjet recording device” (Ricoh Company, Ltd., priority 2013, dated 2015)
